Experimental findings from ChEMBL document CHEMBL1149838, “Usimines A-C, bioactive usnic acid derivatives from the Antarctic lichen Stereocaulon alpinum” (J Nat Prod, 2008) are described below.

This assay addresses T1, Tyrosine-protein phosphatase non-receptor type 1 (Homo sapiens, UniProt P18031).
T1 sequence (P18031 whole entry): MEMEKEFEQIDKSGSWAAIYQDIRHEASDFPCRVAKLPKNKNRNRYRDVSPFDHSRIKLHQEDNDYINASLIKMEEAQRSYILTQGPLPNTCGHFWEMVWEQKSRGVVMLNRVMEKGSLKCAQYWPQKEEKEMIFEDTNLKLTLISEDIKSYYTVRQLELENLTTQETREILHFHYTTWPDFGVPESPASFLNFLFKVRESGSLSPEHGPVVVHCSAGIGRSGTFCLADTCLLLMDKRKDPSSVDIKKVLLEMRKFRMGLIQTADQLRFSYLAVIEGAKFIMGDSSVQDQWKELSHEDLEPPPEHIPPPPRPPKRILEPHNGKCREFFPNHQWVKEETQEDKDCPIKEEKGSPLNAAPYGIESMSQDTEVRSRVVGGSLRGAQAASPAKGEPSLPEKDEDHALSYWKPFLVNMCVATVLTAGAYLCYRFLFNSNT
Kind of assay: Inhibition of human recombinant PTP1B.
`CC(=O)C1=C(O)C=C2Oc3c(C(C)=O)c(O)c(C)c(O)c3[C@@]2(C)C1=O` [(+)-USNIC ACID]: the IC50 is 16.4 µM. The figure for `COC(=O)CC[C@H](/N=C(\C)C1=C(O)C=C2Oc3c(C(C)=O)c(O)c(C)c(O)c3[C@@]2(C)C1=O)C(=O)O` [USIMINE A] is 15 µM; for `CC(=O)c1c(O)c(C)c(O)c2c1OC1=CC(O)=C(/C(C)=N/[C@@H](CCC(=O)O)C(=O)O)C(=O)[C@@]12C` [USIMINE B] it is 27.7 µM.

`CC(=O)c1c(O)c(C)c(O)c2c1OC1=CC(O)=C(/C(C)=N\[C@@H](CCC(=O)O)C(=O)O)C(=O)[C@@]12C` [USIMINE C]: the IC50 is 23.2 µM.

The term IC50 denotes the midpoint of a concentration-inhibition curve.
